Tests used:
ASPC1 = test: Antiproliferative activity against human ASPC1 cells assessed as inhibition of cell growth measured after 48 hrs by MTT assay; format: functional, cell-based; conditions: aspc1
NIH3T3 = test: Antiproliferative activity against mouse NIH3T3 cells assessed as inhibition of cell growth measured after 48 hrs by MTT assay; format: toxicity, cell-based; conditions: nih3t3
HUVEC = test: Antiproliferative activity against human HUVEC cells assessed as inhibition of cell growth measured after 48 hrs by MTT assay; format: toxicity, cell-based; conditions: huvec
MRC5 = test: Antiproliferative activity against human MRC5 cells assessed as inhibition of cell growth measured after 48 hrs by MTT assay; format: toxicity, cell-based; conditions: mrc5
A549 [1] = test: Inhibition of colony formation in human A549 cells assessed as suppression of colony formation at 5 nM replaced with fresh medium for every 72 hrs and measured for 15 days by crystal violet staining based assay relative to control; format: functional; conditions: A549, 360 h, time 15 day
A549 [2] = test: Antiproliferative activity against survivin silenced human A549 cells assessed as inhibition of cell growth measured after 48 hrs by MTT assay; format: functional, cell-based; conditions: A549, 48 h
[3] = Toxicity in BALB/c nude mouse assessed as dermatitis at 4 mg/kg, sc administered every 2 days for 14 days; format: organism-based; conditions: in vivo, 336 h, time 14 day
[4] = Toxicity in BALB/c nude mouse assessed as body weight loss at 4 mg/kg, sc administered every 2 days for 14 days; format: organism-based; conditions: in vivo, 336 h, time 14 day
[5] = Drug distribution in BALB/C nude mouse heart xenografted with human A549 cells at 2 mg/kg measured after 2 to 6 hrs by UPLC-3Q analysis; format: ADME, organism-based; conditions: in vivo, time 2-6 hrs
[6] = Drug metabolism in BALB/C nude mouse kidney xenografted with human A549 cells at 2 mg/kg measured after 2 to 6 hrs by UPLC-3Q analysis; format: ADME, organism-based; conditions: in vivo, time 2-6 hrs
[7] = Toxicity in BALB/c mouse assessed as morphological changes in heart at 2 to 4 mg/kg by H and E staining based analysis; format: organism-based; conditions: in vivo, dose 2-4 mg/kg
[8] = Toxicity in BALB/c mouse assessed as morphological changes in spleen at 2 to 4 mg/kg by H and E staining based analysis; format: organism-based; conditions: in vivo, dose 2-4 mg/kg
[9] = Toxicity in BALB/c mouse assessed as morphological changes in lung at 2 to 4 mg/kg by H and E staining based analysis; format: organism-based; conditions: in vivo, dose 2-4 mg/kg
A549 [10] = test: Induction of apoptosis in human A549 cells assessed as viable cells at 0.1 uM measured after 48 hrs by annexin V and PI staining based flow cytometry analysis (reference value: 93.3%); format: functional; conditions: Homo sapiens, A549, 48 h, read-out: Activity
A549 [11] = test: Induction of apoptosis in human A549 cells assessed as early apoptotic cells at 0.04 uM measured after 48 hrs by annexin V and PI staining based flow cytometry analysis (reference value: 0.71%); format: functional
A549 [12] = test: Induction of apoptosis in human A549 cells assessed as early apoptotic cells at 0.25 uM measured after 48 hrs by annexin V and PI staining based flow cytometry analysis (reference value: 0.71%); format: functional
A549 [13] = test: Induction of apoptosis in human A549 cells assessed as necrotic cells at 0.1 uM measured after 48 hrs by annexin V and PI staining based flow cytometry analysis (reference value: 1.47%); format: functional
TE-1 = test: cells; conditions: Homo sapiens, TE-1, 48 h
Description: Antiproliferative activity against human TE-1 cells assessed as inhibition of cell growth measured after 48 hrs by MTT assay

SMILES: Cn1c[n+](C)c2c1C(=O)c1cc3ccccc3cc1C2=O.[I-]
- IC50 (ASPC1): 0.25 µM
- IC50 (NIH3T3): 14 µM
- IC50 (HUVEC): 6.66 µM
- IC50 (MRC5): 6.9 µM
- inhibition at 0.005 µM (A549 [1]): 100%
- IC50 (A549 [2]): 0.98 µM
- Activity [3]: Non-Toxic
- Activity [4]: Non-Toxic
- Drug uptake [5]: Not Active
- Drug metabolism [6]: Metabolite_Detected
- Activity [7]: Non-Toxic
- Activity [8]: Non-Toxic
- Activity [9]: Non-Toxic
- viability at 0.1 µM (A549 [10]): 8.7%
- Activity (A549 [11]): 6.08%
- Activity (A549 [12]): 2.37%
- Activity (A549 [13]): 6.62%
- IC50 (TE-1): 0.05 µM

— ChEMBL document CHEMBL5375989, “Pioneering 4,11-Dioxo-4,11-dihydro-1H-anthra[2,3-d]imidazol-3-ium Compounds as Promising Survivin Inhibitors by Targeting ILF3/NF110 for Cancer Therapy” (J Med Chem, 2023)
